Reference: PubChem BioAssay AID1259407 (Chemical Carcinogenesis Research Information System (CCRIS), 2018)
“Also recorded” adds a separate entry of the source. Active and inactive are the calls of the source. The rule behind the calls is not given here.

Test system: CCRIS mutagenicity, Ames/micronucleus/aberration tests
Experiment: CCRIS mutagenicity studies

With `COc1cc2c(c3oc(=O)c4c(c13)CCC4=O)[C@@H]1C=CO[C@@H]1O2` as the compound, how does the mutagenic call (Test System: AMES SALMONELLA TYPHIMURIUM, Strain/Indicator: TA100, Metabolic Activation: MOUSE, LIVER, MICROSOMES, BENZO[E]PYRENE AND TCDD, Method: STANDARD PLATE) read?
Its mutagenic call is “active; positive”.

And the mutagenic call (Test System: AMES SALMONELLA TYPHIMURIUM, Strain/Indicator: TA100, Metabolic Activation: RABBIT, LUNG, CLARA CELL-RICH FRACTION, Method: PREINCUBATION)?
Its mutagenic call is “active; positive”.

What about the mutagenic call (Test System: AMES SALMONELLA TYPHIMURIUM, Strain/Indicator: TA100, Metabolic Activation: RAT LIVER S-9, DELOR 103, Method: STANDARD PLATE) of the same compound?
Its mutagenic call is “active; positive”.

What about the mutagenic call (Test System: AMES SALMONELLA TYPHIMURIUM, Strain/Indicator: TA100, Metabolic Activation: RAT LIVER S-9, DELOREM 103, Method: STANDARD PLATE) of the same compound?
Its mutagenic call is “active; positive”.

And the mutagenic call (Test System: AMES SALMONELLA TYPHIMURIUM, Strain/Indicator: TA100, Metabolic Activation: RAT, LIVER, MICROSOMES, PHENOBARBITAL, Method: STANDARD PLATE)?
Its mutagenic call is “active; positive”.

And the mutagenic call (Test System: AMES SALMONELLA TYPHIMURIUM, Strain/Indicator: TA100, Metabolic Activation: RAT, LIVER, S-9, ACRYLAMIDE, Method: STANDARD PLATE)?
The mutagenic call was “active; positive”.

And the mutagenic call (Test System: AMES SALMONELLA TYPHIMURIUM, Strain/Indicator: TA100, Metabolic Activation: RAT, LIVER, S-9, AROCLOR 1254, Method: MICROSUSPENSION)?
Its mutagenic call is “active; positive”.

And the mutagenic call (Test System: AMES SALMONELLA TYPHIMURIUM, Strain/Indicator: TA100, Metabolic Activation: RAT, LIVER, S-9, AROCLOR 1254, Method: PREINCUBATION)?
The mutagenic call was “active; positive”.

And the mutagenic call (Test System: AMES SALMONELLA TYPHIMURIUM, Strain/Indicator: TA100, Metabolic Activation: RAT, LIVER, S-9, AROCLOR 1254, Method: STANDARD PLATE)?
The mutagenic call was “active; positive”.

And the mutagenic call (Test System: AMES SALMONELLA TYPHIMURIUM, Strain/Indicator: TA100, Metabolic Activation: RAT, LIVER, S-9, PHENOBARBITAL, Method: PREINCUBATION)?
The mutagenic call was “active; positive”.

And the mutagenic call (Test System: AMES SALMONELLA TYPHIMURIUM, Strain/Indicator: TA100, Metabolic Activation: RAT, LIVER, S-9, PHENOBARBITAL, Method: STANDARD PLATE)?
The mutagenic call was “active; positive”.

What about the mutagenic call (Test System: AMES SALMONELLA TYPHIMURIUM, Strain/Indicator: TA1538, Metabolic Activation: RAT, LIVER, S-9, AROCLOR 1254, Method: STANDARD PLATE) of the same compound?
The mutagenic call was “active; positive”.

What about the mutagenic call (Test System: Ames Salmonella typhimurium, Strain/Indicator: TA98, Metabolic Activation: Rat, Liver, S-9, Aroclor 1254, Method: Preincubation) of the same compound?
Its mutagenic call is “active; positive (decrease in mutagenicity when 0.99-15.90 mg/plate of chloroform extrac; also recorded: active; positive (decrease in mutagenicity when 0.46-7.30 mg/plate of methanol extract o”.

What about the mutagenic call (Test System: Ames Salmonella typhimurium, Strain/Indicator: TA100, Metabolic Activation: Rat, Liver, S-9, Aroclor 1254, Method: Preincubation) of the same compound?
Its mutagenic call is “active; positive (decrease in mutagenicity when 0.46-7.30 mg/plate of methanol extract o”.

What about the mutagenic call (Test System: CHINESE HAMSTER V-79, Strain/Indicator: V-79/6-THIOGUANINE, Metabolic Activation: NONE, Method: STANDARD PLATE) of the same compound?
The mutagenic call was “inactive; negative”.

And the mutagenic call (Test System: CHINESE HAMSTER V-79, Strain/Indicator: V-79/6-THIOGUANINE, Metabolic Activation: RAT, HEPATOCYTES, BUTYLATED HYDROXYANISOLE, Method: STANDARD PLATE)?
The mutagenic call was “active; positive”.

And the mutagenic call (Test System: CHINESE HAMSTER V-79, Strain/Indicator: V-79/6-THIOGUANINE, Metabolic Activation: RAT, HEPATOCYTES, Method: STANDARD PLATE)?
Its mutagenic call is “active; positive”.

And the mutagenic call (Test System: CHINESE HAMSTER V-79, Strain/Indicator: V-79/6-THIOGUANINE, Metabolic Activation: RAT, LIVER, S-9, PHENOBARBITAL, Method: STANDARD PLATE)?
The mutagenic call was “active; positive”.

What about the mutagenic call (Test System: CHINESE HAMSTER V-79, Strain/Indicator: V-79/OUABAIN, Metabolic Activation: CELL-MEDIATED, Method: STANDARD PLATE) of the same compound?
Its mutagenic call is “active; positive”.

And the mutagenic call (Test System: CHINESE HAMSTER V-79, Strain/Indicator: V-79/OUABAIN, Metabolic Activation: NONE, Method: STANDARD PLATE)?
Its mutagenic call is “inactive; negative”.

And the mutagenic call (Test System: CHINESE HAMSTER V-79, Strain/Indicator: V-79/OUABAIN, Metabolic Activation: RAT, HEPATOCYTES, BUTYLATED HYDROXYANISOLE, Method: STANDARD PLATE)?
Its mutagenic call is “active; positive”.

And the mutagenic call (Test System: CHINESE HAMSTER V-79, Strain/Indicator: V-79/OUABAIN, Metabolic Activation: RAT, HEPATOCYTES, Method: STANDARD PLATE)?
The mutagenic call was “active; positive”.

And the mutagenic call (Test System: UDS GUINEA PIG HEPATOCYTES, Strain/Indicator: THY INCORP, Metabolic Activation: NONE, Method: AUTORADIOGRAPHY)?
Its mutagenic call is “active; positive”.

What about the mutagenic call (Test System: UDS HUMAN CELLS, Strain/Indicator: THY INCORP (NON-S-PHASE), Metabolic Activation: RAT, LIVER, S-9, PHENOBARBITAL, Method: LIQUID SCINTILLATION COUNTING) of the same compound?
The mutagenic call was “active; positive”.

And the mutagenic call (Test System: UDS HUMAN FIBROBLASTS, Strain/Indicator: THY INCORP (NON-S-PHASE), Metabolic Activation: MOUSE, LIVER, S-9, Method: AUTORADIOGRAPHY)?
The mutagenic call was “active; positive”.

What about the mutagenic call (Test System: UDS HUMAN FIBROBLASTS, Strain/Indicator: THY INCORP (NON-S-PHASE), Metabolic Activation: NONE, Method: AUTORADIOGRAPHY) of the same compound?
The mutagenic call was “active; positive”.

And the mutagenic call (Test System: UDS HUMAN FIBROBLASTS, Strain/Indicator: THY INCORP (NON-S-PHASE), Metabolic Activation: NONE, Method: LIQUID SCINTILLATION COUNTING)?
The mutagenic call was “active; positive”.

And the mutagenic call (Test System: UDS HUMAN HEPATOCYTES, Strain/Indicator: THY INCORP, Metabolic Activation: NONE, Method: AUTORADIOGRAPHY)?
Its mutagenic call is “active; positive”.

And the mutagenic call (Test System: UDS MONKEY HEPATOCYTES, Strain/Indicator: THY INCORP, Metabolic Activation: NONE, Method: AUTORADIOGRAPHY)?
Its mutagenic call is “active; positive”.

And the mutagenic call (Test System: UDS RAT HEPATOCYTES, Strain/Indicator: BROMODEOXYURIDINE INCORP, Metabolic Activation: NONE, Method: FLOW CYTOMETRIC ANALYSIS)?
The mutagenic call was “active; positive”.

What about the mutagenic call (Test System: UDS RAT HEPATOCYTES, Strain/Indicator: THY INCORP, Metabolic Activation: AROCLOR 1254, Method: AUTORADIOGRAPHY) of the same compound?
Its mutagenic call is “active; positive”.

And the mutagenic call (Test System: UDS RAT HEPATOCYTES, Strain/Indicator: THY INCORP, Metabolic Activation: NONE, Method: AUTORADIOGRAPHY)?
The mutagenic call was “active; positive”.

What about the mutagenic call (Test System: UDS RAT HEPATOCYTES, Strain/Indicator: THY INCORP, Metabolic Activation: NONE, Method: LIQUID SCINTILLATION COUNTING) of the same compound?
The mutagenic call was “active; positive”.

What about the mutagenic call (Test System: UDS RODENT HEPATOCYTES, Strain/Indicator: THY INCORP (NON-S-PHASE), Method: AUTORADIOGRAPHY) of the same compound?
Its mutagenic call is “active; positive”.

And the mutagenic call (Test System: UDS RODENT HEPATOCYTES, Strain/Indicator: THY INCORP (NON-S-PHASE), Method: LIQUID SCINTILLATION COUNTING)?
Its mutagenic call is “active; positive”.

What about the mutagenic call (Test System: UDS RODENT PRIMARY CELLS, Strain/Indicator: THY INCORP (NON-S-PHASE), Metabolic Activation: NONE, Method: AUTORADIOGRAPHY) of the same compound?
Its mutagenic call is “active; positive”.
